From US12384776B2, “Compounds and uses thereof” (Foghorn Therapeutics Inc., priority 2019, dated 2025)

Target: Nanoluciferase-BRD9 fusion protein (3×FLAG-NLuc-BRD9) in SYO-1 cells (Homo sapiens (Human), UniProt Q9H8M2)
Experiment: SYO1 BRD9 NanoLuc degradation assay
Format: cell-based
Conditions: SYO-1 cells expressing 3×FLAG-NLuc-BRD9, 6 hours incubation, top dose 1 μM
In short: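 Stable SYO-1 line expressing 3×FLAG-NLuc-BRD9, treated with 10-point 3-fold dilutions (top 1 μM final) for 6 hours. Nanoluciferase luminescence read with Nano-Glo reagent. % inhibition relative to DMSO (high control) and 1 μM reference BRD9 degrader (low control).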

Chain of Nanoluciferase-BRD9 fusion protein (3×FLAG-NLuc-BRD9) in SYO-1 cells (Q9H8M2 whole entry, the tested form may be a part): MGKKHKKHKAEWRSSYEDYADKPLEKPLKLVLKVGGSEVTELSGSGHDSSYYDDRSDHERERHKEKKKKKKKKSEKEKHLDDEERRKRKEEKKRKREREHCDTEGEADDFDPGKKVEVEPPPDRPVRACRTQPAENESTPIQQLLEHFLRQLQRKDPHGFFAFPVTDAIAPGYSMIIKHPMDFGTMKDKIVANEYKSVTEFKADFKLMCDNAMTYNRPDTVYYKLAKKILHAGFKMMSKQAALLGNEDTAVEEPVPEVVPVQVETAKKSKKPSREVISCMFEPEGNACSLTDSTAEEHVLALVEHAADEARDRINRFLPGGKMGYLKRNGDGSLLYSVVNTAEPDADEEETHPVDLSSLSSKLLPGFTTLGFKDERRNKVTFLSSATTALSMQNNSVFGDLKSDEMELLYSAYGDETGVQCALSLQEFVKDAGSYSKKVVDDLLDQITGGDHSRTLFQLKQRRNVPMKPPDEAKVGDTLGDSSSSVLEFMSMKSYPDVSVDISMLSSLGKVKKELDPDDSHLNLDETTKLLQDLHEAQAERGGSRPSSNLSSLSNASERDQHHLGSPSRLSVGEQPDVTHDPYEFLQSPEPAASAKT

IC50 [nM] | Compound
10 to 100 | COc1cc(-c2cn(C)c(=O)c3c2CCN(C(=O)NCCCN2CC4(CCN(c5ccc6c(c5)C(=O)N(C5CCC(=O)NC5=O)C6=O)C4)C2)C3)cc(OC)c1CN(C)C (stereo not drawn) [Compound D210]
100 to 1000 | COc1cc(-c2cn(C)c(=O)c3c2CCN(C(=O)NCCN2CC4(CCN(c5ccc6c(c5)C(=O)N(C5CCC(=O)NC5=O)C6=O)C4)C2)C3)cc(OC)c1CN(C)C (stereo not drawn) [Compound D211]
10 to 100 | COc1cc(-c2cn(C)c(=O)c3c2CCN(C(=O)NCCN2CCC4(CC2)CN(c2ccc5c(c2)C(=O)N(C2CCC(=O)NC2=O)C5=O)C4)C3)cc(OC)c1CN(C)C (stereo not drawn) [Compound D212]
10 to 100 | COc1cc(-c2cn(C)c(=O)c3c2CCN(C(=O)NCCCN2CCC(OC4CCN(c5ccc6c(c5)C(=O)N(C5CCC(=O)NC5=O)C6=O)CC4)CC2)C3)cc(OC)c1CN(C)C (stereo not drawn) [Compound D223]
10 to 100 | COc1cc(-c2cn(C)c(=O)c3c2CCN(C(=O)NCCCN2CCC(OC4CCN(c5ccc6c(c5)C(=O)N(C5CCC(=O)NC5=O)C6=O)CC4)C2)C3)cc(OC)c1CN(C)C (stereo not drawn) [Compound D225]
< 10 | COc1cc(-c2cn(C)c(=O)c3c2CCN(C(=O)NCCCN2CCC(N4CCN(c5ccc6c(c5)C(=O)N(C5CCC(=O)NC5=O)C6=O)CC4)C2)C3)cc(OC)c1CN(C)C (stereo not drawn) [Compound D227]
< 10 | COc1cc(-c2cn(C)c(=O)c3c2CCN(C(=O)NCCCN2CCC4C(C2)CN4c2ccc4c(c2)C(=O)N(C2CCC(=O)NC2=O)C4=O)C3)cc(OC)c1CN(C)C (stereo not drawn) [Compound D231]
10 to 100 | COc1cc(-c2cn(C)c(=O)c3c2CCN(C(=O)NCCCN2CCC4CCN(c5ccc6c(c5)C(=O)N(C5CCC(=O)NC5=O)C6=O)C4C2)C3)cc(OC)c1CN(C)C (stereo not drawn) [Compound D234]
100 to 1000 | COc1cc(-c2cn(C)c(=O)c3c2CCN(C(=O)NCC2CC4(CCN(CCCOc5ccc6c(c5)C(=O)N(C5CCC(=O)NC5=O)C6=O)CC4)C2)C3)cc(OC)c1CN(C)C (stereo not drawn) [Compound D235]
10 to 100 | COc1cc(-c2cn(C)c(=O)c3c2CCN(C(=O)NCCCN2CCC4(CC2)CCN(c2ccc5c(c2)C(=O)N(C2CCC(=O)NC2=O)C5=O)C4)C3)cc(OC)c1CN(C)C (stereo not drawn) [Compound D236]
10 to 100 | COc1cc(-c2cn(C)c(=O)c3c2CCN(C(=O)NCCCN2CC4(CCN(c5ccc6c(c5)C(=O)N(C5CCC(=O)NC5=O)C6=O)CC4)C2)C3)cc(OC)c1CN(C)C (stereo not drawn) [Compound D238]
100 to 1000 | COc1cc(-c2cn(C)c(=O)c3c2CCN(C(=O)NCCCN2CC4(CCN4c4ccc5c(c4)C(=O)N(C4CCC(=O)NC4=O)C5=O)C2)C3)cc(OC)c1CN(C)C (stereo not drawn) [Compound D241]
< 10 | COc1cc(-c2cn(C)c(=O)c3c2CCN(C(=O)NCCCN2CCC4(CC2)CN(c2ccc5c(c2)C(=O)N(C2CCC(=O)NC2=O)C5=O)C4)C3)cc(OC)c1CN(C)C (stereo not drawn) [Compound D246]
100 to 1000 | COc1cc(-c2cn(C)c(=O)c3c2CCN(C(=O)NC2CC4(CCN(CCCOc5ccc6c(c5)C(=O)N(C5CCC(=O)NC5=O)C6=O)CC4)C2)C3)cc(OC)c1CN(C)C (stereo not drawn) [Compound D252]

More lines, now with the values behind:

Compound | IC50 [nM]
COc1cc(-c2cn(C)c(=O)c3c2CCN(C(=O)NCC2CC4(CCN(CCOc5ccc6c(c5)C(=O)N(C5CCC(=O)NC5=O)C6=O)CC4)O2)C3)cc(OC)c1CN(C)C (stereo not drawn) [Compound D213] | 100 to 1000
COc1cc(-c2cn(C)c(=O)c3c2CCN(C(=O)NC2CCC4(CCN(CCCN5CCN(c6ccc7c(c6)C(=O)N(C6CCC(=O)NC6=O)C7=O)CC5)C4)C2)C3)cc(OC)c1CN(C)C (stereo not drawn) [Compound D214] | 100 to 1000
COc1cc(-c2cn(C)c(=O)c3c2CCN(C(=O)NC2CCC4(CCN(CCOc5ccc6c(c5)C(=O)N(C5CCC(=O)NC5=O)C6=O)C4)C2)C3)cc(OC)c1CN(C)C (stereo not drawn) [Compound D215] | 100 to 1000
COc1cc(-c2cn(C)c(=O)c3c2CCN(C(=O)NC2CC4(CCN(CCCN5CCN(c6ccc7c(c6)C(=O)N(C6CCC(=O)NC6=O)C7=O)CC5)CC4)C2)C3)cc(OC)c1CN(C)C (stereo not drawn) [Compound D216] | ≥ 1000
COc1cc(-c2cn(C)c(=O)c3c2CCN(C(=O)NC2CC4(CCN(CCCCN5CCN(c6ccc7c(c6)C(=O)N(C6CCC(=O)NC6=O)C7=O)CC5)CC4)CO2)C3)cc(OC)c1CN(C)C (stereo not drawn) [Compound D217] | ≥ 1000
COc1cc(-c2cn(C)c(=O)c3c2CCN(C(=O)NCC2CC4(CCN(CCCCN5CCN(c6ccc7c(c6)C(=O)N(C6CCC(=O)NC6=O)C7=O)CC5)CC4)C2)C3)cc(OC)c1CN(C)C (stereo not drawn) [Compound D218] | 10 to 100
COc1cc(-c2cn(C)c(=O)c3c2CCN(C(=O)NCC2CC4(C2)CN(CCCCN2CCN(c5ccc6c(c5)C(=O)N(C5CCC(=O)NC5=O)C6=O)CC2)C4)C3)cc(OC)c1CN(C)C (stereo not drawn) [Compound D219] | 100 to 1000
COc1cc(-c2cn(C)c(=O)c3c2CCN(C(=O)CC2CCC24CCN(CCCCN2CCN(c5ccc6c(c5)C(=O)N(C5CCC(=O)NC5=O)C6=O)CC2)CC4)C3)cc(OC)c1CN(C)C (stereo not drawn) [Compound D220] | 100 to 1000
COc1cc(-c2cn(C)c(=O)c3c2CCN(C(=O)NC2CCC4CN(CCCCN5CCN(c6ccc7c(c6)C(=O)N(C6CCC(=O)NC6=O)C7=O)CC5)CC42)C3)cc(OC)c1CN(C)C (stereo not drawn) [Compound D221] | 100 to 1000
CNC(=O)N1CCc2c(-c3cc(OC)c(CN4CCC5(CC4)CN(CCCCOc4ccc6c(c4)C(=O)N(C4CCC(=O)NC4=O)C6=O)CCO5)c(OC)c3)cn(C)c(=O)c2C1 (stereo not drawn) [Compound D222] | < 10
COc1cc(-c2cn(C)c(=O)c3c2CCN(C(=O)NC2CC4(CCN(CCOc5ccc6c(c5)C(=O)N(C5CCC(=O)NC5=O)C6=O)CC4)C2)C3)cc(OC)c1CN(C)C (stereo not drawn) [Compound D224] | < 10
COc1cc(-c2cn(C)c(=O)c3c2CCN(C(=O)NC2CC4(CCN(CCCCN5CCN(c6ccc7c(c6)C(=O)N(C6CCC(=O)NC6=O)C7=O)CC5)C4)C2)C3)cc(OC)c1CN(C)C (stereo not drawn) [Compound D226] | 10 to 100
COc1cc(-c2cn(C)c(=O)c3c2CCN(C(=O)NC2CC4(CCN(CCOc5ccc6c(c5)C(=O)N(C5CCC(=O)NC5=O)C6=O)C4)C2)C3)cc(OC)c1CN(C)C (stereo not drawn) [Compound D228] | 10 to 100
COc1cc(-c2cn(C)c(=O)c3c2CCN(C(=O)NCCCN2CCC(OCC4CCN(c5ccc6c(c5)C(=O)N(C5CCC(=O)NC5=O)C6=O)CC4)C2)C3)cc(OC)c1CN(C)C (stereo not drawn) [Compound D229] | 10 to 100
COc1cc(-c2cn(C)c(=O)c3c2CCN(C(=O)NC2CC4(C2)CN(CCCCN2CCN(c5ccc6c(c5)C(=O)N(C5CCC(=O)NC5=O)C6=O)CC2)C4)C3)cc(OC)c1CN(C)C (stereo not drawn) [Compound D230] | ≥ 1000
COc1cc(-c2cn(C)c(=O)c3c2CCN(C(=O)NCC2CC4CN(CCCCN5CCN(c6ccc7c(c6)C(=O)N(C6CCC(=O)NC6=O)C7=O)CC5)CC4C2)C3)cc(OC)c1CN(C)C (stereo not drawn) [Compound D232] | 10 to 100

Compound | IC50 [nM]
COc1cc(-c2cn(C)c(=O)c3c2CCN(C(=O)NCC2CC4(CCN(CCCOc5ccc6c(c5)C(=O)N(C5CCC(=O)NC5=O)C6=O)CC4)CO2)C3)cc(OC)c1CN(C)C (stereo not drawn) [Compound D233] | 100 to 1000
COc1cc(-c2cn(C)c(=O)c3c2CCN(C(=O)NC2CCC24CCN(CCCOc2ccc5c(c2)C(=O)N(C2CCC(=O)NC2=O)C5=O)CC4)C3)cc(OC)c1CN(C)C (stereo not drawn) [Compound D237] | ≥ 1000
COc1cc(-c2cn(C)c(=O)c3c2CCN(C(=O)NCC2CC24CCN(CCCCN2CCN(c5ccc6c(c5)C(=O)N(C5CCC(=O)NC5=O)C6=O)CC2)CC4)C3)cc(OC)c1CN(C)C (stereo not drawn) [Compound D240] | 100 to 1000
COc1cc(-c2cn(C)c(=O)c3c2CCN(C(=O)NCC2CC24CCN(CCCOc2ccc5c(c2)C(=O)N(C2CCC(=O)NC2=O)C5=O)CC4)C3)cc(OC)c1CN(C)C (stereo not drawn) [Compound D242] | 100 to 1000
COc1cc(-c2cn(C)c(=O)c3c2CCN(C(=O)NC2CC4CC2CN4CCCCN2CCN(c4ccc5c(c4)C(=O)N(C4CCC(=O)NC4=O)C5=O)CC2)C3)cc(OC)c1CN(C)C (stereo not drawn) [Compound D243] | ≥ 1000
COc1cc(-c2cn(C)c(=O)c3c2CCN(C(=O)NC2CCC4CN(CCCOc5ccc6c(c5)C(=O)N(C5CCC(=O)NC5=O)C6=O)CC42)C3)cc(OC)c1CN(C)C (stereo not drawn) [Compound D244] | 100 to 1000
COc1cc(-c2cn(C)c(=O)c3c2CCN(C(=O)NC2CC4CN(CCCCN5CCN(c6ccc7c(c6)C(=O)N(C6CCC(=O)NC6=O)C7=O)CC5)CC4C2)C3)cc(OC)c1CN(C)C (stereo not drawn) [Compound D245] | 100 to 1000
COc1cc(-c2cn(C)c(=O)c3c2CCN(C(=O)NC2C[C@@H]4CN(CCCCN5CCN(c6ccc7c(c6)C(=O)N(C6CCC(=O)NC6=O)C7=O)CC5)C[C@H]24)C3)cc(OC)c1CN(C)C (stereo partly drawn) [Compound D247] | 100 to 1000
COc1cc(-c2cn(C)c(=O)c3c2CCN(C(=O)NC2C[C@@H]4CN(CCCOc5ccc6c(c5)C(=O)N(C5CCC(=O)NC5=O)C6=O)C[C@H]24)C3)cc(OC)c1CN(C)C (stereo partly drawn) [Compound D248] | ≥ 1000
COc1cc(-c2cn(C)c(=O)c3c2CCN(C(=O)NC2C[C@@H]4CN(CCOc5ccc6c(c5)C(=O)N(C5CCC(=O)NC5=O)C6=O)C[C@H]24)C3)cc(OC)c1CN(C)C (stereo partly drawn) [Compound D249] | ≥ 1000
COc1cc(-c2cn(C)c(=O)c3c2CCN(C(=O)NC2CCC4(CCN(CCCOc5ccc6c(c5)C(=O)N(C5CCC(=O)NC5=O)C6=O)C4)C2)C3)cc(OC)c1CN(C)C (stereo not drawn) [Compound D250] | 100 to 1000
CNC(=O)N1CCc2c(-c3cc(OC)c(CN4CCC(CCN5CCC6(CC5)CC(Oc5ccc7c(c5)C(=O)N(C5CCC(=O)NC5=O)C7=O)C6)CC4)c(OC)c3)cn(C)c(=O)c2C1 (stereo not drawn) [Compound D251] | < 10
CNC(=O)N1CCc2c(-c3cc(OC)c(CN4CCC(CN5CCC6(CC5)CC(Oc5ccc7c(c5)C(=O)N(C5CCC(=O)NC5=O)C7=O)C6)CC4)c(OC)c3)cn(C)c(=O)c2C1 (stereo not drawn) [Compound D253] | < 10
CNC(=O)N1CCc2c(-c3cc(OC)c(CN4CCC(C(=O)N5CCC6(CC5)CC(Oc5ccc7c(c5)C(=O)N(C5CCC(=O)NC5=O)C7=O)C6)CC4)c(OC)c3)cn(C)c(=O)c2C1 (stereo not drawn) [Compound D254] | < 10
CNC(=O)N1CCc2c(-c3cc(OC)c(CN4CCC5(CC4)CC(N4CCN(c6ccc7c(c6)C(=O)N(C6CCC(=O)NC6=O)C7=O)CC4)C5)c(OC)c3)cn(C)c(=O)c2C1 (stereo not drawn) [Compound D255] | < 10
